# Results: patent publication US20260199316A1, “SOLID DISPERSION, PREPARATION METHOD THEREFOR, AND USE THEREOF” (HANGZHOU GLUBIO PHARMACEUTICAL CO., LTD, priority 2022, published 2026)
# Legend:
# [1] = Solubility of rapid solvent evaporation products in FaSSIF; format: physicochemical; details: fassif, thermodynamic from solid
# Experimental: About 10 mg of the API control of the compound of formula A and 40 mg of the polymer carrier were transferred to 1 mL of DCM:EtOH=9:1 (v/v) to prepare a solution with 20% drug loading. The resulting clear solution was rapidly evaporated at 80° C. until there was no liquid to prepare a solid dispersion. The API control of the compound of formula A was also treated separately in the same manner.
# [2] = In vivo pharmacokinetic study of solid dispersions; design: species or system Sprague Dawley (SD) rats; details: male SD rats, intragastric 300 mg/kg (as compound of formula A), plasma
# Experimental: According to Table 16, three solid dispersions, namely, formulation of API+Soluplus, formulation of API+PVP VA64 and formulation of API+HPC SSL, were selected to conduct in vivo pharmacokinetic tests with the corresponding amorphous form of API to study the pharmacokinetic characteristics of solid dispersions with different formulations in animals.
# Method: solid dispersions with different formulations were evaluated with the pharmacokinetic characteristics of male Sprague Dawley (SD) rats after intragastric administration.
# Materials: SD Rats (Male, 200-250 g, 6-8 Weeks Old, Zhejiang Weitong Lihua).
# Steps: the solid dispersion with the formulation of Table 16 was tested by intragastric administration of 300 mg/kg (dosage calculated according to the compound of formula A) to SD rats, and the solvent was 25 mM citrate buffer pH3 containing 5% Tween 80. The animals were free to eat and drink water. Blood was collected from the jugular vein 15 min (0.25 h), 30 min (0.5 h), 60 min (1 h), 2 h, 4 h, 6 h, 8 h and 24 h after administration. Whole blood was collected in an anticoagulant tube containing EDTA-K2, and after thorough mixing, it was centrifuged at 4° C. and 4000 g for 5 minutes to separate plasma. Plasma samples were stored at −75±15° C. until the blood concentration of the compound of formula A was determined by LC-MS/MS. The relevant pharmacokinetic parameters were calculated using the non-compartmental model and linear/log trapezoidal method of Phoenix WinNonlin 6.1.
# [3] = Redispersion solubility test of solid dispersions (SGF, then SGF + 2 times volume FaSSIF); format: physicochemical; details: Concentration 1 mg/mL
# Experimental: […] After stirring at 37° C. for 0.25 h and 0.5 h at 500 rpm, about 200 μL of the suspension was centrifuged at 14,000 rpm for 5 min, and the supernatant was diluted by 6 times with diluent for HPLC analysis. After sampling at 0.5 h, 2 times the volume of SGF of FaSSIF was immediately added to the suspension and the mixture was stirred for another 0.25 h, 0.5 h and 1.5 h, and then sampled for HPLC analysis and pH testing.
# [4] = Chirality stability in solvents (other studies); format: physicochemical
# [5] = Approximate solubility test in solvents; format: physicochemical; details: organic solvent or mixture, thermodynamic from solid
# Experimental: About 5 mg of the API control of Formula A was weighed into a 1.5 mL glass vial, and then a certain amount of different solvents (as shown in Table 1) were gradually added until the solid dissolved or the total volume reached 1 mL. The compound of formula A has a high approximate solubility in a mixed solvent of DCM and MeOH.
# Different solvents have different solubility for the compound of formula A, considering the stability factor, DCM:EtOH (9:1, v/v) and acetone:water (9:1, v/v) may be used as solvent systems for the preparation of solid dispersions of the compound of formula A.
smiles,measurement,setting,value
"O=C1CC[C@H](N2Cc3cc(C(=O)N[C@H](c4ccc(Cl)cn4)C4CCC4)ccc3C2=O)C(=O)N1 [Amorphous form of API, N—((S)-(5-chloropyridin-2-yl)(cyclobutyl)methyl)-2-((S)-2,6-dioxopiperidin-3-yl)-1-oxoisoindoline-5-carboxamide]",solubility at 0.25 h,[1]; 0.25 h,470 µg/mL
same,solubility at 0.5 h,[1]; 0.5 h,490 µg/mL
same,solubility at 0.75 h,[1]; 0.75 h,600 µg/mL
same,solubility at 1 h,[1]; 1 h,570 µg/mL
same,solubility at 2 h,[1]; 2 h,450 µg/mL
same,AUC(0-inf),"[2]; Sprague Dawley, rat, po",112 µg·h/mL
same,AUC(0-t),"[2]; Sprague Dawley, rat, po",111 µg·h/mL
same,Cmax,"[2]; Sprague Dawley, rat, po",18700 ng/mL
same,Tmax,"[2]; Sprague Dawley, rat, po",1 h
same,half-life,"[2]; Sprague Dawley, rat, po",4.06 h
same,AUClast/D,[2],369 ng·kg·h/mL/mg
same,End point pH,[3],6.55
same,solubility at 0.75 h,"[3]; SGF + 2 times volume FaSSIF, fassif, thermodynamic from solid, 37° C., read-out: Redispersion solubility, Step 2: SGF + 2 times volume FaSSIF (0.75 hr)",460 µg/mL
same,solubility at 1 h,"[3]; SGF + 2 times volume FaSSIF, fassif, thermodynamic from solid, 37° C., read-out: Redispersion solubility, Step 2: SGF + 2 times volume FaSSIF (1.0 hr)",440 µg/mL
same,solubility at 2 h,"[3]; SGF + 2 times volume FaSSIF, pH 6.55, fassif, thermodynamic from solid, 37° C., read-out: Redispersion solubility, Step 2: SGF + 2 times volume FaSSIF (2.0 hr)",270 µg/mL
same,solubility at 0.25 h,"[3]; simulated gastric fluid (SGF), simulated gastric fluid, thermodynamic from solid, 37° C., read-out: Redispersion solubility, Step 1: SGF (0.25 hr)",960 µg/mL
same,solubility at 0.5 h,"[3]; simulated gastric fluid (SGF), simulated gastric fluid, thermodynamic from solid, 37° C., read-out: Redispersion solubility, Step 1: SGF (0.5 hr)",980 µg/mL
"O=C1CC[C@H](N2Cc3cc(C(=O)N[C@H](c4ccc(Cl)cn4)C4CCC4)ccc3C2=O)C(=O)N1 [compound of formula A, N—((S)-(5-chloropyridin-2-yl)(cyclobutyl)methyl)-2-((S)-2,6-dioxopiperidin-3-yl)-1-oxoisoindoline-5-carboxamide]",Chirality stability,[4]; in MeOH,rapidly racemized
same,Chirality stability,[4]; in acetone and ethanol,better chirality stability
same,solubility,[5]; solvent ACN,< 5000 µg/mL
same,solubility,[5]; solvent Acetone,< 5000 µg/mL
same,solubility,[5]; solvent Acetone:ACN (1:1),< 5000 µg/mL
same,solubility,[5]; solvent Acetone:DCM (1:1),< 5000 µg/mL
same,solubility,[5]; solvent Acetone:DCM (4:1),< 5000 µg/mL
same,solubility,[5]; solvent Acetone:THF (1:1),< 5000 µg/mL
same,solubility,[5]; solvent DCM,< 5000 µg/mL
same,solubility,[5]; solvent DCM:MeOH (1:1),25000 to 50000 µg/mL
same,solubility,[5]; solvent DCM:MeOH (2:1),50000 to 100000 µg/mL
same,solubility,[5]; solvent DCM:MeOH (4:1),50000 to 100000 µg/mL
same,solubility,[5]; solvent DCM:MeOH (5:1),50000 to 100000 µg/mL
same,solubility,[5]; solvent DCM:MeOH (7:1),50000 to 100000 µg/mL
same,solubility,[5]; solvent DCM:MeOH (9:1),25000 to 50000 µg/mL
same,solubility,[5]; solvent DCM:MeOH (99:1),< 5000 µg/mL
same,solubility,[5]; solvent DCM:THF (1:1),< 5000 µg/mL
same,solubility,[5]; solvent DCM:THF (4:1),< 5000 µg/mL
same,solubility,[5]; solvent Ethyl acetate,< 5000 µg/mL
same,solubility,[5]; solvent MeOH,< 5000 µg/mL
same,solubility,[5]; solvent THF,< 5000 µg/mL
same,solubility,"[5]; v/v), solvent Acetone:Water (9:1)",15000 to 50000 µg/mL
same,solubility,"[5]; v/v), solvent DCM:EtOH (9:1)",5000 to 15000 µg/mL
